# Experiments:
# BJ1 = assay: MTT assay in BJ1 cells; assay type: cell-based
# Protocol: (§1) A total of 2×10^3 […] cells were seeded in the 96-well cell culture plate, and incubated with DMEM (GIBCO®)/glucose mixture and Medium 199 (GIBCO®)/10% FBS/1 mM sodium pyruvate (GIBCO®)/4 mM L-glutamine (GIBCO®) mixture at a ratio of 4:1 at 37° C. for 24 hours. […] After 48 hours of drug treatment, the cultured medium were collected for performing the analysis of SEAP activity. The cells were washed with 1×PBS once immediately, and the MTT assay was performed to compare the compounds with the relative toxicity or the influence to the proliferation and activity. Mitochondria is the place for cellular respiration, and there are many reductive reactions catalyzed by dehydrogenases. MTT is a water-soluble yellow compound, and the […] will be formed after reduction. This crystal can be dissolved in the organic solvent, and has high absorbance at the wavelength of 570 nm. The higher cellular activity or more cell numbers, the more generated crystal violets. Therefore, the cellular activity and cell number can be obtained by the MTT assay. MTT solution was prepared by dissolving MTT powder in PBS solution to achieve 5 mg/ml, filtrated and stored at 4° C. Lysis buffer contained 20% (w/v) of SDS in 50% of N,N-dimethylformamide (DMF, Riedel-deHaën). After the cells were incubated in the 96-well culture plate, the original medium was discarded, 100 μl of the fresh serum-free medium per well and 25 μl of MTT solution per well were added in respectively, and the cells were further incubated in the CO2 incubator at 37° C. for 4 hours. Then, 100 μl of lysis buffer per well was added in and incubated overnight in the CO2 incubator at 37° C. The absorbance at 570 nm was determined by the ELISA reader.
# H1299 = assay: MTT assay in H1299 cells; assay type: cell-based
# Protocol: as §1, with “H1299 is a non-small cell lung cancer cell line with telomerase activity. The cell extract of H1299 cell lines can be used for selecting the telomerase activity inhibitors in vitro and the telomerase activity-inhibited substances in vivo. H1299 cell line was incubated with RPMI 1640 medium supplemented with 10% of fetal bovine serum (FBS). A total” for “A total”, “ELISA reader. The selection of telomerase inhibitors of the anthraquinone compounds provided in the present invention was performed by the […]-driven SEAP system. SEAP is the communication gene in this drug selection model. The SEAP inhibition was shown as follows. […] Subsequently, the linear slope of absorbance to the measuring time was calculated, and the variance of absorbance at 405 nm per minute was represented and compared with the SEAP-producing result of drug-untreated H1299 cells. In addition, the influence of the cell-treated drug solution to the cellular proliferation and the drug toxicity to the cells were considered, and the cellular growth was evaluated by the MTT assay. The drug-treated cells were analyzed by the SEAP assay and the data analysis of MTT assay at the same time. Both results were compared so as to delete the influence of cell number or the activity to SEAP, and the dose-dependent phenomenon could be anticipated in the range of drug concentration designed by the laboratory. […] Since the chemically-synthetic drugs have colors thereon, the SEAP value of drug-treatment without cells was also determined to be the background value which was deducted while treating with the drugs. The candidate drug for inhibiting telomerase on the hTERT gene expression level was evaluated and anticipated.” for “ELISA reader.”
smiles,measurement,setting,value
"O=C1c2ccc(NC(=O)C3CCCC3)cc2C(=O)c2cc(NC(=O)C3CCCC3)ccc21 [Compound 33, 2,7-Bis(cyclopentanecarbonamido)anthraquinone]",viability,BJ1; 1 µM,77 ± 1%
same,viability,BJ1; 10 µM,68 ± 1%
same,viability,BJ1; 100 µM,58 ± 1%
same,viability,H1299; 1 µM,91 ± 12%
same,viability,H1299; 10 µM,77 ± 6%
same,viability,H1299; 100 µM,42 ± 12%

# From US20090253709A1 (NATIONAL DEFENSE MEDICAL CENTER, priority 2008, published 2009)
